The structures appear in SMILES notation.

Usually melting point stands for the temperature, or range, at which the solid turns liquid. Consider `CNC(=O)c1cccc2cccc(NC(=O)c3cccs3)c12` [Compound 120, N-methyl 8-[(2-thienyl)carbonylamino]-1-naphthalenecarboxamide], for which the melting point is 215 °C.

The values above are taken from US20040053786A1, “Insecticidal 1,8-naphthalenedicarboxamides” (priority 2000, published 2004).
